System: Kochia (Bassia scoparia)
Assay: Greenhouse post emergence treatment, herbicidal activity by visual control on a 0 to 100 scale
Assay type: in vivo
Settings: scale 0 to 100, mean of three replications
Description: Synergism can be described as an interaction where the combined effect of two or more compounds is greater than the sum of the individual effects of each of the compounds. The presence of a synergistic effect in terms of percent control, between two mixing partners (X and Y) can be calculated using the Colby equation (Colby, S. R., 1967, Calculating Synergistic and Antagonistic Responses in Herbicide Combinations, Weeds, 15, 21-22):
When the observed combined control effect is greater than the expected (calculated) combined control effect (E), then the combined effect is synergistic.
Weed included Kochia (Bassia scoparia). However, the herbicidal effect afforded by the compounds, mixtures or compositions is not limited to these species. The analysis of synergism or antagonism between the mixtures or compositions was determined using Colby's equation. • Test Method: […]
Pots with 0.3 L of volume were filled with soil (SunGroco Horticulture, Agawam, MA 01001) to grow one plant per pot in the greenhouse until the desired developmental stage.
Environmental conditions inside the greenhouse were setup for 25° C., 75% relative humidity, and 12 h light day-1 with natural sunlight or 500 μmol m−1 s−1 PAR for cloudy days. […]
The test period extended to 2 to 21 days after treatment. During this time, the plants were tended, and their response to the individual treatments was evaluated. […]

SMILES	Herbicidal activity against Kochia (21 DAT), Found (Glufosinate 420 g ai/ha alone)	Herbicidal activity against Kochia (21 DAT), Found (Flumioxazin 2.5 g ai/ha alone)
CP(=O)(O)CCC(N)C(=O)O (racemic) [Glufosinate, (2RS)-2-amino-4-[hydroxy(methyl)phosphinoyl]butyric acid]	25	–
C#CCN1C(=O)COc2cc(F)c(N3C(=O)C4=C(CCCC4)C3=O)cc21 [Flumioxazin, flumioxazin]	–	4
